Patent publication US8629135B2, “Pharmaceutical compositions comprising RET inhibitors and methods for the treatment of cancer” (Queen's University at Kingston, priority 2008, dated 2014)
Values joined by “and” are separate entries in the source; they are usually repeats but may differ in a detail not shown here. Equal entries are not always repeated. “Also recorded” adds a separate entry of the source. Structures can show the parent of a compound that is named as a salt. Where two headings read alike, the source gives them in different places.

How the values were obtained:
RET [1] = target: T1, RET (Homo sapiens (Human), UniProt P07949); test: Protein based RET kinase assay with purified recombinant GST-RET; format: biochemical
Target sequence in this assay (P07949 29-1114): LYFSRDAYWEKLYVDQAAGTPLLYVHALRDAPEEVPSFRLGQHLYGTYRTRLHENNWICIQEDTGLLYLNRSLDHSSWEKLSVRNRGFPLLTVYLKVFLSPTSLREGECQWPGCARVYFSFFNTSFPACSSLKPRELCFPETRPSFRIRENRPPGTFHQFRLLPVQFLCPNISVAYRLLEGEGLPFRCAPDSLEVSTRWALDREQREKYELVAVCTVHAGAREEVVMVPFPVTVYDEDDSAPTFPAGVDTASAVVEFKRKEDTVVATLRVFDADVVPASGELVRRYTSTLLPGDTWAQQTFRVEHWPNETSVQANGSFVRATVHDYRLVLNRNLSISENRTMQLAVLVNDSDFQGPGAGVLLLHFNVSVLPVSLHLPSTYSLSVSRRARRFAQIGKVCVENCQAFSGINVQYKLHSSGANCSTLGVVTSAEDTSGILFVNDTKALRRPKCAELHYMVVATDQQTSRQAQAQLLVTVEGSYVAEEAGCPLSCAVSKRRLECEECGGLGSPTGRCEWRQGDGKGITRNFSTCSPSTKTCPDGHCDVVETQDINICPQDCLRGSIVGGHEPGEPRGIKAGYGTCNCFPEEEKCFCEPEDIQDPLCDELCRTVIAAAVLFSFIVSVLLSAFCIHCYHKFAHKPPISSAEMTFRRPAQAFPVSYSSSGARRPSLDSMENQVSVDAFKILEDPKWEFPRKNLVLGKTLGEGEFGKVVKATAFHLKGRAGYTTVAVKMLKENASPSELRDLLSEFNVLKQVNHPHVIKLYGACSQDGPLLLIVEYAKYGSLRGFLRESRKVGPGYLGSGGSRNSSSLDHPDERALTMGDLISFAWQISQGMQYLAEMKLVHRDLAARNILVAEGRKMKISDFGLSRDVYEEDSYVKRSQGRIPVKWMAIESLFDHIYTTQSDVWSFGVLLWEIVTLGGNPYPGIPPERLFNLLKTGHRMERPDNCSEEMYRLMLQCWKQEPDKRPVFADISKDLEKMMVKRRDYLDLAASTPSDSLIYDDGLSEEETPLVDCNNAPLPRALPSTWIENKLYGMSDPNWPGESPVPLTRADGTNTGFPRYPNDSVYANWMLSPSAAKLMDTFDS

RET [2] = target: T1, RET; test: RET autophosphorylation (pY905 Western blot) in HEK293 cells stably expressing RET; format: cell-based
Target sequence in this assay (P07949 29-1114 limits assumed): as the sequence (P07949 29-1114) above

MiaPaca-2 tumours = test: Xenograft study, subcutaneous MiaPaca-2 tumours; format: in vivo; details: MiaPaca-2 xenograft, nude mice, intraperitoneal; SW-01 50 mg/kg, gemcitabine 120 mg/kg
RET [3] = target: T1, RET; set-up: key to the marks not given beside the values; details: RET phosphorylation levels
Target sequence in this assay (P07949 29-1114): as above

[4] = tested on: RET-mediated activation of ERK; details: increasing concentrations, HEK293 cells
TT cells [5] = details: 24 hours, 10× magnification
MiaPaca-2 cells = details: presence of GDNF
[6] = tested on: RET-expressing HEK293 cells
BxPc3 tumours = details: BxPc3 xenograft, nude mice, 50 mg/kg intraperitoneal every three days
MCF7 cells = details: presence of GDNF
TT cells [7] = tested on: TT cells
RET M918T mutant = RET M918T mutant (Homo sapiens (Human), UniProt P07949, M918T); details: HEK293 cells, 2 h
[8] = tested on: MiaPaca-2 cells expressing RET; details: MiaPaca-2, GDNF + SW-01 (5 μM) relative to GDNF alone
ERK or AKT pathways = details: parental HEK 293 cells not expressing RET, increasing concentration
RET V804M mutant = RET V804M mutant (Homo sapiens (Human), UniProt P07949, V804M); details: HEK293 cells, 2 h
[9] = tested on: HEK293 cells stably expressing RET
[10] = purified protein assay, read-out: IC50
[11] = varying concentrations, 2 hours, HEK293 cells expressing RET
[12] = cell based assay, read-out: EC50

Chain of RET M918T mutant (P07949 29-1114 M918T): as the sequence (P07949 29-1114) above, with M890T counted along it
Chain of RET V804M mutant (P07949 29-1114 V804M): as the sequence (P07949 29-1114) above, with V776M counted along it

CCN(CC)CCCOC(=O)CC1c2ccccc2C=Cc2ccccc21 [SW-12, (5H-Dibenzo[a,d]cyclohepten-5-yl)-acetic acid 3-diethylamino-propyl ester]
IC50 (RET [1]; [10]): 4 µM
EC50 (RET [2]): > 20 µM

C[N+](C)([O-])CCC=C1c2ccccc2CCc2ccccc21.Cl [SW-03, 3-(10,11-Dihydro-5H-dibenzo[a,d]cyclohepten-5-ylidene)-N,N-dimethyl-1-propanamine N-oxide hydrochloride]
IC50 (RET [1]; [10]): 10 µM
EC50 (RET [2]): > 20 µM
RET autophosphorylation (RET [2]; [11]): did not affect RET autophosphorylation

CN(C)CCCC1(O)c2ccccc2C=Cc2ccccc21 [SW-11, 5-(3-Dimethylamino-propyl)-5H-dibenzo[a,d]cyclohepten-5-ol]
IC50 (RET [1]; [10]): > 10 µM
EC50 (RET [2]; [12]): > 20 µM

CN(C)CCOC1c2ccccc2C=Cc2ccccc21 [SW-13, [2-(5H-Dibenzo[a,d]cyclohepten-5-yloxy)-ethyl]-dimethyl-amine]
IC50 (RET [1]; [10]): 2.5 µM
EC50 (RET [2]; [12]): 7 µM

NCCCC1(CCCN)c2ccccc2-c2ccccc21 [SW-10, 9,9-Bis(3-aminopropyl)-fluorine]
IC50 (RET [1]; [10]): > 20 µM
EC50 (RET [2]; [12]): > 20 µM

CN(C)CCC=C1c2ccccc2CCc2ccccc21 [SW-05, Amitriptyline]
IC50 (RET [1]; [10]): 1 µM
EC50 (RET [2]): 5 µM
RET autophosphorylation (RET [2]; [11]): inhibited RET activity; also recorded: decreased RET activity

Nc1ccn([C@@H]2O[C@H](CO)[C@@H](O)C2(F)F)c(=O)n1 [gemcitabine, reference compound]
tumour growth (MiaPaca-2 tumours): no statistical difference between SW-01 and gemcitabine treatment groups

CNCCC=C1c2ccccc2CCc2ccccc21.Cl [SW-02, Nortriptyline Hydrochloride]
IC50 (RET [1]; purified protein assay, Hydrochloride, read-out: IC50): 5 µM
EC50 (RET [2]; EC50, cell based assay): > 20 µM
RET autophosphorylation (RET [2]; varying concentrations, 2 hours, HEK293 cells expressing RET, Hydrochloride): inhibited RET activity; also recorded: decreased RET activity

CN(C)CCC=C1c2ccccc2C=Cc2ccccc21.Cl [SW-01, Cyclobenzaprine Hydrochloride]
SW-01 Inhibition (10 μM) (RET [3]): ++
amount of pERK [4]: significantly reduced
cell morphology (TT cells [5]): exhibited induced morphological changes
apoptosis (MiaPaca-2 cells): caused dose-dependent apoptosis
IC50 (RET [1]; kinase assays using purified recombinant RET proteins, Hydrochloride, read-out: IC50 for RET): 0.3 µM and 0.307 µM
IC50 (RET [1]; [10]): 0.3 µM
RET autokinase activity (RET [1]; purified recombinant RET, pY905 Western blot): significantly reduced RET autokinase activity
RET-mediated colony formation in soft agar [6]: inhibits RET-mediated colony formation
tumour growth (MiaPaca-2 tumours): no statistical difference between SW-01 and gemcitabine treatment groups
RET autophosphorylation (RET [2]; 10 μM for 2 hours, HEK293 cells expressing activated wildtype RET, Hydrochloride): significantly inhibited RET autophosphorylation
RET autophosphorylation (RET [2]; 10 μM for 2 hours, HEK293 cells expressing activated wildtype RET, listed as NSC78206, Hydrochloride): significant RET inhibition
EC50 (RET [2]; EC50, cell based assay): 1 µM
expression levels of RET (RET [2]; pan RET antibody, HEK293 cells): did not affect expression levels of RET
RET autophosphorylation (RET [2]; [11]): blocked or dramatically reduced
tumour growth (BxPc3 tumours): caused slowed and reduced tumour growth
apoptosis (MCF7 cells): caused apoptosis in MCF7 cells in a dose-dependent fashion
apoptosis (TT cells [7]): led to apoptosis
RET phosphorylation (pRET/RET) (RET M918T mutant): inhibited by SW-01 in a concentration dependent fashion
cell proliferation (MTT) (BxPc3): caused decreased cell proliferation
apoptosis (NCIH69 cells): caused apoptosis in NCIH69 cells in a dose-dependent fashion
cell migration (wound closure) [8]: cell migration was inhibited
effect on ERK or AKT pathways (ERK or AKT pathways): did not affect ERK or AKT pathways
cell proliferation (MTT) (MiaPaca-2): caused decreased cell proliferation
RET phosphorylation (pRET/RET) (RET V804M mutant): inhibited by SW-01 in a concentration dependent fashion
RET-mediated cell proliferation (MTT) [9]: reduces RET-mediated cell proliferation

NCC1c2ccccc2CCc2ccccc21 [SW-08, 10,11-Dihydro-5H-dibenzo[a,d]cycloheptene-5-methanamine]
IC50 (RET [1]; [10]): 5 µM
EC50 (RET [2]): 20 µM

CNCCC=C1c2ccccc2CCc2ccccc21 [SW-04, Nortriptyline]
IC50 (RET [1]; [10]): 1.5 µM
EC50 (RET [2]; EC50, cell based assay): 10 µM
RET autophosphorylation (RET [2]; [11]): did not affect RET autophosphorylation

CN(C)CCNC1c2ccccc2-c2ccccc21 [SW-09, N′-Fluoren-9-yl-N,N-dimethyl-ethylenediamine dihydrochloride]
IC50 (RET [1]; [10]): > 20 µM
EC50 (RET [2]; [12]): > 20 µM

CN(CCCN1c2ccccc2CCc2ccccc21)CC(=O)c1ccc(Cl)cc1 [SW-06, Lofepramine]
IC50 (RET [1]; [10]): > 20 µM
EC50 (RET [2]; [12]): > 20 µM

CN(C)CCC=C1c2ccccc2C(C)(C)c2ccccc21 [SW-14, Melitracin]
IC50 (RET [1]; [10]): > 20 µM
EC50 (RET [2]; [12]): > 20 µM

CNCCC=C1c2ccccc2C=Cc2ccccc21 [SW-15, Norcyclo- benzaprine (NCBA)]
EC50 (RET [2]): 1 µM
RET autophosphorylation (RET [2]; [11]): inhibited RET
